Results published in patent US12629406B2, “Alterations in endothelin receptors following hemorrhage and resuscitation by centhaquin” (MIDWESTERN UNIVERSITY, priority 2018, dated 2026).
Values joined by “and” are separate entries in the source; they are usually repeats but may differ in a detail not shown here. Identical values can stand only once.

Key:
[1] = Rat hemorrhagic shock, hypertonic saline resuscitation: hematocrit, arterial blood gases, lactate, base deficit; format: in vivo
Description: Animals. Male Sprague-Dawley rats (340 to 380 g) (Envigo, Indianapolis, IN) were housed for at least 4 days in a room with controlled temperature (23±1° C.), humidity (50±10%) and light (6:00 A.M. to 6:00 P.M.) before being used. Food and water were made available continuously. Animal care and use for experimental procedures were approved by the Institutional Animal Care and Use Committee of the Midwestern University. All anesthetic and surgical procedures were in compliance with the guidelines established by the Animal Care Committee.
Determination of arterial blood gases and base deficit. Baseline arterial blood pH, Po2, Pco2, Na^+, K^+ and lactate were monitored prior to induction of shock, 30 minutes after induction of shock, and 30 and 60 minutes following vehicle or centhaquin resuscitation. Blood samples (0.15 ml) were drawn from the arterial cannula using blood gas sampling syringes (Innovative Medical Technologies, Inc. Leawood, K S) and analyzed using a pHOx Ultra analyzer (Nova Biomedical Corporation, Waltham, MA). The base deficit was calculated using the formula (Davis et al. 1998; Paladino et al. 2008): SBD=0.9287×[HCO3^−−24.4+14.83×(pH-7.4)]
(§1) Induction of Hemorrhagic Shock. Hemorrhage was induced by withdrawing blood from the femoral artery at a rate of approximately 0.5 to 1 mL/min until a MAP of 35 mmHg was reached. This MAP was maintained for 30 min by further withdrawal of blood, if necessary. The hemorrhagic shock model used in the present study is a well-established rodent model of manageable pressure hemorrhage (Buehler et al. 2000; Gulati et al. 1997a; Gulati and Sen 1998). The volume of blood loss was about approximately 8.0 ml in each rat and was similar in various groups, amounting to approximately 40% of the total blood. Measured hematocrit levels were similar in various groups. The duration of blood withdrawal was approximately 15 minutes.
Experimental design. To determine the resuscitative effect of centhaquin on cardiovascular system and plasma cytokines in hemorrhagic shock, rats were randomly divided into five groups, Group 1: Sham control (Non-hemorrhaged) (n=5), Group 2: Hemorrhage with no resuscitation (n=5); Group 3: Hemorrhage followed by resuscitation with 3% hypertonic saline (vehicle) (n=5); Group 4: Hemorrhage followed by resuscitation with vehicle plus centhaquin (0.017 mg/kg) (n=5); and Group 5: Hemorrhage followed by resuscitation with vehicle plus centhaquin (0.05 mg/kg) (n=5). Resuscitation was started 30 min after induction of hemorrhagic shock as an intravenous infusion (1 mL/min) through femoral vein using an infusion pump (Harvard Apparatus Infusion/Withdrawal Pump, Millis, MA). The blood samples, for biochemical estimations, were collected at 30 minutes of resuscitation and cardiovascular parameters were monitored till 60 minutes after which the animal was sacrificed. The volume of resuscitative solution was kept equal to the volume of blood loss.

[2] = 24 human subjects; cited from earlier work
[3] = Phase II study of PMZ-2010 as resuscitative agent for hypovolemic shock (CTRI/2017/03/008184), interim analysis; format: in vivo, human
Text: A prospective, multi-centric, randomized, double-blind, parallel, saline controlled phase II study of PMZ-2010 (centhaquin) as a resuscitative agent for hypovolemic shock due to excessive blood loss (CTRI/2017/03/008184) is being conducted. All subjects received standard treatment for shock (the type of treatment and care the enrolling institution would provide). Patients were randomly assigned to either control cohort (N=7) that received standard treatment along with normal saline or PMZ-2010 cohort (N=12) that received standard treatment along with PMZ-2010.

[4] = test system: IL-6; experiment: Plasma IL-6 in hemorrhaged rats (ELISA); format: in vivo, rat; conditions: p<0.01
Description: as §1
Experimental design. […] The blood samples, for biochemical estimations, were collected at 30 minutes of resuscitation and cardiovascular parameters were monitored till 60 minutes after which the animal was sacrificed. […]

[5] = 60 min after resuscitation, centhaquin 0.017 mg/kg in 3% saline
[6] = 60 min after resuscitation, centhaquin 0.05 mg/kg in 3% saline
[7] = Baseline, before hemorrhage, centhaquin 0.017 mg/kg group
[8] = Baseline, before hemorrhage, centhaquin 0.05 mg/kg group
[9] = H. Shock, before resuscitation, centhaquin 0.017 mg/kg group
[10] = H. Shock, before resuscitation, centhaquin 0.05 mg/kg group
[11] = centhaquin 0.017 and 0.05 mg/kg

For `Cc1cccc(N2CCN(CCc3ccc4ccccc4n3)CC2)c1` [centhaquin, 2-[2-(4-(3-methyphenyl)-1-piperazinyl)]ethyl-quinoline], the Base-deficit [1, 5] was −12.0±0.2 mEq/L and −12.0 ± 0.2^#Δ mEq/L, the Hematocrit [1, 5] was 21.5 ± 1.8% and the Lactate [1, 5] was 1.9 ± 0.1^#Δ mmol/L. For the same molecule, the PCO2 [1, 5] was 26.0 ± 1.6 mmHg, the “arterial blood pH” value [1, 5] was 7.24 ± 0.02^Δ and the pO2 [1, 5] was 131.3 ± 5.4 mmHg. For the same molecule, the Base-deficit [1, 6] was −11.6±0.5 mEq/L and −11.6 ± 0.5^#Δ mEq/L, the Hematocrit [1, 6] was 21.3 ± 1.3% and the Lactate [1, 6] was 1.7 ± 0.2^#Δ mmol/L. For the same molecule, the PCO2 [1, 6] was 27.3 ± 1.9 mmHg, the “arterial blood pH” value [1, 6] was 7.28 ± 0.01^Δ and the pO2 [1, 6] was 121.3 ± 4.6 mmHg. The Base-deficit [1, 7] was −2.9 ± 0.3 mEq/L, the Hematocrit [1, 7] was 36.8 ± 1.3% and the Lactate [1, 7] was 1.5 ± 0.2 mmol/L. For the same molecule, the PCO2 [1, 7] was 33.8 ± 1.2 mmHg, the “arterial blood pH” value [1, 7] was 7.38 ± 0.01 and the pO2 [1, 7] was 125.5 ± 1.9 mmHg. It also gave a Base-deficit [1, 8] of −2.8 ± 0.3 mEq/L, a Hematocrit [1, 8] of 39.3 ± 1.6% and a Lactate [1, 8] of 1.8 ± 0.1 mmol/L. The PCO2 [1, 8] was 34.5 ± 2.1 mmHg, the “arterial blood pH” value [1, 8] was 7.38 ± 0.01 and the pO2 [1, 8] was 120.2 ± 1.2 mmHg. It also gave a Base-deficit [1, 9] of −15.3 ± 0.4 mEq/L, a Hematocrit [1, 9] of 24.8 ± 1.5 % and a Lactate [1, 9] of 7.6 ± 0.3 mmol/L. For the same molecule, the PCO2 [1, 9] was 15.9 ± 0.9 mmHg, the “arterial blood pH” value [1, 9] was 7.23 ± 0.02 and the pO2 [1, 9] was 145.6 ± 1.9 mmHg. It also gave a Base-deficit [1, 10] of −15.4 ± 0.9 mEq/L, a Hematocrit [1, 10] of 22.2 ± 0.7 % and a Lactate [1, 10] of 7.4 ± 0.4 mmol/L. The PCO2 [1, 10] was 16.3 ± 1.5 mmHg, the “arterial blood pH” value [1, 10] was 7.25 ± 0.03 and the pO2 [1, 10] was 142.8 ± 1.8 mmHg. For the same molecule, the “change in hematocrit after treatment” value [1, 11] was “no change”, the “effect on blood pH of hemorrhaged rats” value [1, 11] was “significantly prevented the reduction of pH” and the “blood lactate levels compared to the hypertonic saline group” value ([1]; centhaquin 0.017 and 0.05 mg/kg, p<0.001) was “significant decrease”. For the same molecule, the “effect on hemorrhage-induced decrease in pCO2 and increase in pO2” value ([1]; resuscitation with centhaquin) was “not affected”, the safety and tolerability [2] was “safe and was well tolerated” and the “increase of diastolic blood pressure” value ([3]; 48 hours after resuscitation, control 15.4%) was 34.9%. The “blood urea nitrogen versus control cohort” value ([3]; baseline and discharge) was “similar”, the “decrease of serum creatinine level” value ([3]; baseline to discharge, control 25.35%) was 42.61% and the “increase of glomerular filtration rate” value ([3]; baseline to discharge, control 40.00%) was 81.52%. For the same molecule, the “time spent on ventilator” value ([3]; control 5.09±3.14 days) was 0.85 ± 0.71 days, the “total amount of vasopressors needed in first 48 hours of resuscitation” value ([3]; control 18.4±12.1 mg) was 1.3 ± 1.2 mg and the “decrease of blood lactate levels” value ([3]; control 47%) was 63%. For the same molecule, the “time in intensive care unit, of the total hospital stay” value ([3]; control 57.3%) was 39.3%, the “Total Number of doses administered” value ([3]; first 48 hours, 12 patients) was 13 doses in 12 patients and the “Number of doses per patient” value ([3]; first 48 hours, Mean ± SEM) was 1.08 ± 0.08. For the same molecule, the “increase in glomerular filtration rate, more compared to standard treatment” value ([3]; in vivo) was 41.52%, the “reduction of serum creatinine levels, more compared to standard treatment” value ([3]; in vivo) was 17.26% and the “total blood products administered in the first 48 hours, less than control” value ([3]; in vivo) was 23.4%. The “total fluids needed in the first 48 hours of resuscitation, less than control” value ([3]; in vivo) was 19.9%, the “adverse events (primary endpoint of safety)” value ([3]; patients, N=12) was “no adverse event was reported” and the “blood pressure increase versus control cohort” value ([3]; systolic and diastolic, baseline to discharge (FIG. 9)) was “more than that observed in control cohort”. For the same molecule, the “increase of systolic blood pressure from baseline” value ([3]; until 48 hours after resuscitation, control 34.5%) was 45.2% and the “plasma IL-6 level compared to hypertonic saline alone” value [4] was “further increased”.
